What was measured:
[1] = wn = mass fraction of the nth substance listed; settings: for surface tension liquid-gas: Maximal bubble pressure; for mass density: 100 kPa, Liquid, Vibrating tube method
[2] = refractive index (Na D-line) (dimensionless); wn = mass fraction of the nth substance listed; settings: 100 kPa, Liquid, Standard Abbe refractometry

CCCn1cc[n+](C)c1.C[C@@H](O)[C@H](N)C(=O)[O-] [1-propyl-3-methylimidazolium DL-threoninate] + O
Settings | mass density, [1] [kg/m3] | refractive index, [2] | surface tension liquid-gas, [1] [mN/m]
288.15 K, w2 = 0.0065 | 1150.46 | 1.5132 | 42
288.15 K, w2 = 0.0092 | 1150.15 | 1.5127 | 42.2
288.15 K, w2 = 0.0116 | 1149.81 | 1.5121 | 42.4
288.15 K, w2 = 0.0135 | 1149.56 | 1.5117 | 42.6
288.15 K, w2 = 0.0161 | 1149.22 | 1.5111 | 42.8
293.15 K, w2 = 0.0065 | 1147.75 | 1.5116 | 41.7
293.15 K, w2 = 0.0092 | 1147.33 | 1.5111 | 41.9
293.15 K, w2 = 0.0116 | 1146.94 | 1.5105 | 42.1
293.15 K, w2 = 0.0135 | 1146.61 | 1.5101 | 42.3
293.15 K, w2 = 0.0161 | 1146.22 | 1.5095 | 42.5
298.15 K, w2 = 0.0065 | 1143.37 | 1.5101 | 41.3
298.15 K, w2 = 0.0092 | 1142.89 | 1.5096 | 41.6
298.15 K, w2 = 0.0116 | 1142.43 | 1.509 | 41.8
298.15 K, w2 = 0.0135 | 1142.12 | 1.5086 | 42
298.15 K, w2 = 0.0161 | 1141.66 | 1.508 | 42.2
303.15 K, w2 = 0.0065 | 1139.97 | 1.5088 | 41
303.15 K, w2 = 0.0092 | 1139.49 | 1.5082 | 41.3
303.15 K, w2 = 0.0116 | 1139.07 | 1.5077 | 41.5
303.15 K, w2 = 0.0135 | 1138.7 | 1.5073 | 41.7
303.15 K, w2 = 0.0161 | 1138.27 | 1.5068 | 41.9
308.15 K, w2 = 0.0065 | 1136.59 | 1.5074 | 40.7
308.15 K, w2 = 0.0092 | 1136.11 | 1.5069 | 41
308.15 K, w2 = 0.0116 | 1135.68 | 1.5064 | 41.2
308.15 K, w2 = 0.0135 | 1135.31 | 1.5061 | 41.4
308.15 K, w2 = 0.0161 | 1134.87 | 1.5056 | 41.6
313.15 K, w2 = 0.0065 | 1133.16 | 1.506 | 40.4
313.15 K, w2 = 0.0092 | 1132.71 | 1.5055 | 40.7
313.15 K, w2 = 0.0116 | 1132.22 | 1.5052 | 40.9
313.15 K, w2 = 0.0135 | 1131.88 | 1.5048 | 41.1
313.15 K, w2 = 0.0161 | 1131.4 | 1.5044 | 41.3
318.15 K, w2 = 0.0065 | 1129.72 | 1.5044 | 40.1
318.15 K, w2 = 0.0092 | 1129.19 | 1.504 | 40.4
318.15 K, w2 = 0.0116 | 1128.78 | 1.5036 | 40.6
318.15 K, w2 = 0.0135 | 1128.43 | 1.5033 | 40.8
318.15 K, w2 = 0.0161 | 1127.95 | 1.5028 | 41.1
323.15 K, w2 = 0.0065 | 1126.27 | 1.5029 | 39.8
323.15 K, w2 = 0.0092 | 1125.8 | 1.5024 | 40.1
323.15 K, w2 = 0.0116 | 1125.32 | 1.5021 | 40.4
323.15 K, w2 = 0.0135 | 1124.96 | 1.5018 | 40.6
323.15 K, w2 = 0.0161 | 1124.48 | 1.5013 | 40.9
328.15 K, w2 = 0.0065 | 1122.82 | 1.5015 | 39.5
328.15 K, w2 = 0.0092 | 1122.34 | 1.5011 | 39.8
328.15 K, w2 = 0.0116 | 1121.86 | 1.5007 | 40.1
328.15 K, w2 = 0.0135 | 1121.5 | 1.5004 | 40.4
328.15 K, w2 = 0.0161 | 1121 | 1.4999 | 40.7
